Assay [1] addresses T1, CDK1/Cyclin B complex (Homo sapiens, UniProt P06493).
T1 construct: purchased Upstate Inc. 14-450
The assay can be described thus: In vitro kinase assay, CDK1/Cyclin B complex. To be noted: recombinant protein (Upstate). Format: biochemical. A digest of the protocol:
(§1)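 Recombinant human enzymes assayed per supplier protocol. IC50 derived with compound-free wells set as 0% inhibition and compound- and enzyme-free wells as 100% inhibition.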

Assay [2] relates to leukemia cell line KG-1a. The assay can be described thus: Cell proliferation inhibitory activity, KG-1a. Format: cell-based. To be noted: Homo sapiens, 96 h, cells counted 4 days later with Cell Counting Kit-8. The procedure, abridged: (§2)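 Suspended cells were added to test substance solutions at a range of concentrations and cultured for 4 days at 37° C in a 5% CO2 incubator. Viable cell numbers were then determined by CCK-8.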
A general note: Tetrazolium dyes change colour on reduction, which living cells bring about.

In assay [3] the target is T2, CDK3/Cyclin E complex (Homo sapiens, UniProt Q00526).
T2 construct: purchased Upstate Inc. 14-487
The assay can be described thus: In vitro kinase assay, CDK3/Cyclin E complex. Type of assay: biochemical. The following applies: recombinant protein (Upstate); read-out: CDK3/cyclinE IC50. On the procedure: Inhibitory activity against Aurora A, CDK1/Cyclin B complex, CDK2/Cyclin E complex and CDK3/Cyclin E complex were measured by in vitro kinase assay using recombinant proteins.

Assay [4] deals with breast cancer cell line MDA-MB-231. The assay can be described thus: Cell proliferation inhibitory activity, MDA-MB-231. Format: cell-based. The following applies: Homo sapiens, 96 h, cells counted 4 days later with Cell Counting Kit-8. The procedure, abridged: as §2
Assay [5] concerns ovarian cancer cell line IGROV1. The assay can be described thus: Cell proliferation inhibitory activity, IGROV1. Format: cell-based. To be noted: Homo sapiens, IGROV-1, 96 h, cells counted 4 days later with Cell Counting Kit-8. The procedure, abridged: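 IC50 values come from a 4-day proliferation assay in which cells were cultured with multiple test compound concentrations and quantified by Cell Counting Kit-8.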

The target in assay [6] is T3, Aurora A (Homo sapiens, UniProt O14965).
T3 construct: purchased Upstate Inc. 14-511
T3 sequence (O14965 1-403): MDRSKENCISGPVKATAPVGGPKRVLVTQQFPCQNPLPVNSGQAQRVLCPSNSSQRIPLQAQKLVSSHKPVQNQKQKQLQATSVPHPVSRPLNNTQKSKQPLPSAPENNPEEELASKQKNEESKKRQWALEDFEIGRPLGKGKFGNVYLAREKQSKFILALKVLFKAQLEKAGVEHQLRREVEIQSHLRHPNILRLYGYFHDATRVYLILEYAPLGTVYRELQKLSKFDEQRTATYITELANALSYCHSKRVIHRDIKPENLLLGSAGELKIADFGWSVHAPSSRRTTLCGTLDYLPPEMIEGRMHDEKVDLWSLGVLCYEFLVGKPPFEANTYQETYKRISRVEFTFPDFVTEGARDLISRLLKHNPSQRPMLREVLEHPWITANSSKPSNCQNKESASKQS
The assay can be described thus: In vitro kinase assay, Aurora A. Type of assay: biochemical. To be noted: recombinant protein (Upstate). A digest of the protocol: as §1

The test system of assay [7] is colon carcinoma cell line SW620. The assay can be described thus: Cell proliferation inhibitory activity, SW620. The following applies: Homo sapiens, SW-620, 96 h, cells counted 4 days later with Cell Counting Kit-8. Type of assay: cell-based, human. The procedure, abridged:
as §2

Assay [8] concerns prostate cancer cell line DU 145. The assay can be described thus: Cell proliferation inhibitory activity, DU 145. Type of assay: cell-based, human. To be noted: Homo sapiens, 96 h, cells counted 4 days later with Cell Counting Kit-8. A digest of the protocol: as §2
The test system of assay [9] is lung carcinoma cell line NCI-H460. The assay can be described thus: Cell proliferation inhibitory activity, NCI-H460. Type of assay: cell-based. The following applies: Homo sapiens, 96 h, cells counted 4 days later with Cell Counting Kit-8. A digest of the protocol: as §2
In assay [10] the test system is pancreatic cancer cell line MIAPaCa-2. The assay can be described thus: Cell proliferation inhibitory activity, MIAPaCa-2. Format: cell-based. To be noted: Homo sapiens, MIA PaCa-2, 96 h; cells counted 4 days later, Cell Counting Kit-8. The procedure:
Evaluations were carried out using colon carcinoma cell line SW620 (Cat. No. CCL-227), lung carcinoma cell line NCI-H460 (Cat. No. HTB-177), prostate cancer cell line DU 145 (Cat. No. HTB-81), breast cancer cell line MDA-MB-231 (Cat. No. HTB26) and leukemia cell line KG-1a (Cat. No. CCL-246.1) purchased from ATCC, pancreatic cancer cell line MIAPaCa-2 (Cat. No. CRL-1420) purchased from Dainippon Pharmaceutical, and ovarian cancer cell line IGROV1 received from the Netherland Cancer Institute. The cells were cultured under the conditions recommended by the supplier for each cell line, or with respect to IGROV1, according to the method described in Cancer Res. 59: 4559-4563, 1999. Cells suspended in media were added to solutions containing the test substances at various concentrations followed by culturing in a 5% CO2 incubator at 37° C. The numbers of cells were counted 4 days later with the Cell Counting Kit-8. IC50 values were calculated by assigning measured values in the case of not containing a test substance to an inhibition of 0%, and assigning measured values in the case of not containing a test substance or cells to an inhibition of 100%.

T2 sequence (Q00526 whole entry): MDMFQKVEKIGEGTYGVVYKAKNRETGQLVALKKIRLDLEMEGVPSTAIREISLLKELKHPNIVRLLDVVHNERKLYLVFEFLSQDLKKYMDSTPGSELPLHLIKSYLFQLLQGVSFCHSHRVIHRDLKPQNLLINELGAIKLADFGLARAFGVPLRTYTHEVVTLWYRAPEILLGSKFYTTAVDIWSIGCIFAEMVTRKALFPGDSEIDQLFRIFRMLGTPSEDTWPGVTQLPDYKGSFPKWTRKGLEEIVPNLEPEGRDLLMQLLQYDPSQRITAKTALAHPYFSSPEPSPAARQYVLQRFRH
T2 sequence (P24864 whole entry partner): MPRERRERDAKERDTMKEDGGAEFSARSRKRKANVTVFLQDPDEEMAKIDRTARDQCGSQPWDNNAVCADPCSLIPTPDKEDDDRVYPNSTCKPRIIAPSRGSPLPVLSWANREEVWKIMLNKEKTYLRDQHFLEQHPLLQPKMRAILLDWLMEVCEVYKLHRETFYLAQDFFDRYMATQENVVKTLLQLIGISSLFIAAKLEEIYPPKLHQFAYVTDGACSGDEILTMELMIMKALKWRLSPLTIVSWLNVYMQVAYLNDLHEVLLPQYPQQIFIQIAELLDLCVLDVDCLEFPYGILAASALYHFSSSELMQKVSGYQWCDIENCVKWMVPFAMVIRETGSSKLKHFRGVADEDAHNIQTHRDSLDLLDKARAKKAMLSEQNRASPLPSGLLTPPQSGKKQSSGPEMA
T1 sequence (P06493 whole entry): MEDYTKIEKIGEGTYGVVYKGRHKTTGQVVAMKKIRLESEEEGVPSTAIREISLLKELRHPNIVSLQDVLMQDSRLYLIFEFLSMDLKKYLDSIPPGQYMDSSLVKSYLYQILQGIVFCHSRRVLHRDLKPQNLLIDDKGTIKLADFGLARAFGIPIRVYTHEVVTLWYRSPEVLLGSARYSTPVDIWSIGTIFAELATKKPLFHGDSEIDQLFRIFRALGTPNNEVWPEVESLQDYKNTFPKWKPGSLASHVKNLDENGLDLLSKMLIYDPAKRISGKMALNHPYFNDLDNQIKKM
T1 sequence (P14635 whole entry partner): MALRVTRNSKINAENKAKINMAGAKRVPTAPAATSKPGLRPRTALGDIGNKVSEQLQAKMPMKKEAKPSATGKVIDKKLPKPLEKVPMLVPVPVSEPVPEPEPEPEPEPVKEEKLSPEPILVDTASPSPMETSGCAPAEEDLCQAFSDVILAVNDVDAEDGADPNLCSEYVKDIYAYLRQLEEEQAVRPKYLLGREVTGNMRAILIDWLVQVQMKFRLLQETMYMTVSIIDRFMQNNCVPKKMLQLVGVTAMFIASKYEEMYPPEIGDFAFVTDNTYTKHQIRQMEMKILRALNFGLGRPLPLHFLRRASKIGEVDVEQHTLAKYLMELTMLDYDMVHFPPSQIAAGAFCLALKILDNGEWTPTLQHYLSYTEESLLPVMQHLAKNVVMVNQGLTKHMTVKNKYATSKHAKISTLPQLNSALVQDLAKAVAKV

Regarding `O=C(CNc1ccc(Cl)c(O)c1)Nc1nc2ccc3[nH]ncc3c2s1` [compound 6], the IC50 in [1] is 255 nM; in [2], below 100 nM; in assay [3], 28 nM; in assay [4] it was 2600 nM; in [5], 4300 nM; in [6], 257 nM. The IC50 in assay [7] stood at 1500 nM.

Consider `CC(=O)Nc1cc(NCC(=O)Nc2nc3ccc4[nH]ncc4c3s2)ccc1Cl` [compound 16], for which the IC50 in [2] is below 100 nM; in assay [3], 50 nM; in assay [4], 4400 nM; in assay [8], 3200 nM; in assay [9] it was 3200 nM; in [6] it was 278 nM. Moreover, the IC50 in assay [10] is 4400 nM; in assay [7], 1200 nM.

Turning to `CC(C)(Nc1cccc(O)c1)C(=O)Nc1nc2ccc3[nH]ncc3c2s1` [compound 33], the IC50 in [1] is 115 nM; in assay [2], below 100 nM; in [3], 33 nM; in assay [4], 2000 nM; in [8] it was 1700 nM; in assay [9], 3600 nM. Further, the IC50 was determined as 2700 nM in assay [5], 29 nM in assay [6], 4500 nM in assay [10] and 400 nM in assay [7].

Take `CC(C)(Nc1ccc(Cl)cc1)C(=O)Nc1nc2ccc3[nH]ncc3c2s1` [compound 35]: the IC50 in [2] is below 100 nM; in assay [3], 80 nM; in assay [8], 2500 nM; in assay [6], 428 nM; in assay [7], 700 nM.

Consider `CC(=O)Nc1cc(NC(C)(C)C(=O)Nc2nc3c(C(F)(F)F)cc4[nH]ncc4c3s2)ccc1Cl` [compound 53], for which the IC50 in [1] stood at 420 nM; in assay [2], 300 nM; in [3], 45 nM; in assay [4] it was 4000 nM; in [8] it was 1500 nM; in assay [9], 2400 nM. The IC50 in assay [6] stood at 227 nM; in assay [10], 4700 nM; in assay [7] it was 1300 nM.

For the molecule `CCNC(=O)c1cc(NC(C)(C)C(=O)Nc2nc3c(C(F)(F)F)cc4[nH]ncc4c3s2)ccc1F` [compound 58], the IC50 turned out to be 186 nM in assay [1]; 300 nM in [2]; 47 nM in assay [3]; 4700 nM in [4]; 900 nM in [8]; 1300 nM in assay [9]. Moreover, the IC50 in assay [10] turned out to be 4000 nM; in assay [7] it was 500 nM.

Regarding `CCNC(=O)c1cc(NC(C)(C)C(=O)Nc2nc3c(C(F)(F)F)cc4[nH]ncc4c3s2)ccc1Cl` [compound 60], the IC50 turned out to be 73 nM in [1]; 300 nM in assay [2]; 16 nM in assay [3]; 4500 nM in [4]; 900 nM in [8]; 1500 nM in assay [9]. The IC50 in assay [6] was 163 nM; in [10] it was 4400 nM; in assay [7], 300 nM.

In the case of `CC(C)(Nc1ccc(Cl)c(C(=O)NC2CC2)c1)C(=O)Nc1nc2c(C(F)(F)F)cc3[nH]ncc3c2s1` [compound 75], the IC50 in assay [1] is 128 nM; in assay [2] it was below 100 nM; in assay [3], 41 nM; in assay [4] it was 3600 nM; in assay [8], 1100 nM; in assay [9], 2000 nM. Moreover, the figures for the IC50 in assay [6], in assay [10] and in assay [7] were 472 nM, 3900 nM and 500 nM, respectively.

For the molecule `CC(C)(Nc1ccc(Cl)c(O)c1)C(=O)Nc1nc2c(C(F)(F)F)cc3[nH]ncc3c2s1` [compound 95], the IC50 in [1] came out at 105 nM; in assay [2], 100 nM; in [3], 22 nM; in [8], 1100 nM; in assay [9] it was 1200 nM; in assay [6] it was 340 nM. The IC50 in assay [10] is 4600 nM; in assay [7], 400 nM.

`O=C(Nc1nc2ccc3[nH]ncc3c2s1)C1(Nc2ccc(Cl)cc2)CC1` [compound 117]: the IC50 in assay [1] was 358 nM; in [2], below 100 nM; in assay [3], 44 nM; in [4], 2500 nM; in assay [8], 2200 nM; in assay [9], 2800 nM. Besides, the IC50 amounted to 2700 nM in assay [5], 317 nM in assay [6] and 500 nM in [7].

With `CCOC(=O)c1cc(NC2(C(=O)Nc3nc4ccc5[nH]ncc5c4s3)CC2)ccc1Cl` [compound 118], the IC50 is below 100 nM in assay [2], 169 nM in assay [3], 236 nM in [6] and 2000 nM in assay [7].

Consider `CC(=O)Nc1cc(NC2(C(=O)Nc3nc4ccc5[nH]ncc5c4s3)CC2)ccc1F` [compound 120], for which the IC50 is below 100 nM in assay [2]; 105 nM in [3]; 3300 nM in assay [8]; 1900 nM in [9]; 4800 nM in assay [5]; 164 nM in assay [6]. In [7], the IC50 was determined as 800 nM.

For the molecule `CCC(=O)Nc1cc(NC2(C(=O)Nc3nc4ccc5[nH]ncc5c4s3)CC2)ccc1F` [compound 121], the IC50 in assay [2] is below 100 nM; in [3], 125 nM; in assay [8], 3400 nM; in [9], 2200 nM; in assay [5], 4800 nM; in assay [6], 307 nM. The IC50 was 4600 nM in assay [10] and 500 nM in assay [7].

Consider `CNC(=O)c1cc(NC2(C(=O)Nc3nc4ccc5[nH]ncc5c4s3)CC2)ccc1Cl` [compound 126], for which the IC50 in assay [1] is 145 nM; in assay [2], below 100 nM; in [3] it was 38 nM; in assay [8], 3700 nM; in assay [9], 4200 nM; in [6], 58 nM. In addition, in [7], the IC50 amounted to 1500 nM.

Regarding `CC(=O)Nc1cc(NC(C)(C)C(=O)Nc2nc3ccc4[nH]ncc4c3s2)ccc1Cl` [compound 128], the IC50 is below 100 nM in assay [2]; 61 nM in assay [3]; 4600 nM in [4]; 1700 nM in assay [8]; 1100 nM in assay [9]; 3500 nM in assay [5]. In addition, the IC50 in assay [6] turned out to be 39 nM; in [10], 3200 nM; in assay [7] it was 900 nM.

On to `CCC(=O)Nc1cc(NC(C)(C)C(=O)Nc2nc3ccc4[nH]ncc4c3s2)ccc1Cl` [compound 129], for which the IC50 in assay [2] is below 100 nM; in [3], 103 nM; in assay [8], 2600 nM; in assay [9], 2700 nM; in [5], 4800 nM; in assay [6] it was 113 nM. In assay [7], this molecule gave an IC50 of 800 nM.

For `O=C(Nc1nc2ccc3[nH]ncc3c2s1)C(CO)Nc1ccc(Cl)cc1` (centres unmarked) [compound 132], the IC50 is 379 nM in assay [1]; below 100 nM in [2]; 29 nM in assay [3]; 1900 nM in assay [4]; 1400 nM in assay [8]; 1700 nM in [9]. Further, the results for the IC50 in assay [5], in [10] and in assay [7] were 1400 nM, 3700 nM and 600 nM, respectively.

As for `CC(C)(Nc1ccc(Cl)c(C(=O)NCCCC(=O)O)c1)C(=O)Nc1nc2c(C(F)(F)F)cc3[nH]ncc3c2s1` [compound 144], the IC50 is 297 nM in [1], 180 nM in assay [3], 88 nM in assay [6] and 3300 nM in assay [7].

These data come from patent publication US7879887B2, “α-amino acid derivatives and medicaments containing the same as an active ingredient” (Nissan Chemical Industries, Ltd., priority 2006, dated 2011).
